Reference: patent US20230304058A1, “NOVEL 5'CAP ANALOG HAVING CAP2 STRUCTURE AND PREPARATION METHOD THEREFOR” (Shenzhen Rhegen Biotechnology Co., Ltd., priority 2020, published 2023)

Assays:
T7 Enzyme Mix = T7 Enzyme Mix (Escherichia phage T7, UniProt P00573); test: In vitro transcription mRNA synthesis with cap analog, reaction yield; assay type: biochemical; conditions: per ml transcription reaction system; 37° C. for 6 h; LiCl purification
Experimental: 1. Before synthesizing mRNA, linearize the plasmid with Notl, digested at […] overnight;
2. Extract with DNA template;
React at 37° C. for 6 h. Digest with TURBO DNase for 15 min.
4. Purify the transcription products using LiCl solution and calculate the reaction yields.

[1] = system: TLR3, TLR7, TLR8 and RIG-1; test: Intracellular immunogenicity of capped mRNA by RNA immunoprecipitation and quantitative PCR; assay type: cell-based; conditions: relative to ARCA; Human-derived PBMC cells, 5 μg mRNA, Lipofectamine 2000, 24 h
Experimental: Experimental methods: the intracellular immunoproteins TLR3, TLR7, TLR8 and RIG-1 were immunoprecipitated together with their bound RNAs by RNA immunoprecipitation, and finally these mRNAs were identified by real-time quantitative PCR, and their relative abundance was proportional to their immunogenicity.
The cells were collected by trypsin digestion 24 h later and resuspended in PBS, centrifuged, and collected.
Fixative was added to the cells, and after 15 minutes glycine was added for termination of fixation, followed by centrifugation to collect the cells. Cells were resuspended by adding lysate, incubated on ice at 4° C. for 30 min, centrifuged at 2400 g for 10 min, and the supernatant was collected.
TLR3, TLR7, TLR8 and RIG-1 antibodies (2-10 μg) were added to the supernatant (6-10 mg) followed by gentle incubation at 4° C. for 2 hours. Protein AIG beads (40 μL) were then added to them and incubated gently for 1 h at 4° C.
Centrifuge at 2500 rpm for 30 seconds with precipitated magnetic beads and remove the supernatant. Resuspend the beads in 500 μL of RIP buffer. Wash in RIP buffer a total of three times, followed by one wash in PBS.
Resuspend magnetic beads in TRIzol RNA Extraction Reagent (1 mL) and isolate co-precipitated RNA, and then elute RNA using nuclease-free water (20 μL).
6. Reverse transcribe (RT) the RNA into cDNA and design primers according to the mRNA sequence for quantitative PCR analysis. mRNA immunogenicity is proportional to the number of mRNA copies precipitated by magnetic beads.

mRNA = mRNA capping rate by RNase H cleavage and LC-MS; assay type: biochemical; conditions: ratio of capped and uncapped mRNA
Excerpt: The mRNA molecules with different Cap structures obtained in Example 1 were subjected to enzymatic cleavage, and the ratio of capped and uncapped mRNA molecules could be determined in a liquid chromatography-mass spectrometry analysis experiment.
1. Concentrate the beads using a magnet, aspirate the supernatant storage solution, and add an equal volume of 0.1 M NaOH +0.05 M NaCl;
2. Aspirate the supernatant and resuspend the beads with an equal volume of 0.1 M NaCl, keep the concentration constant;
3. Anneal mRNA and cleavage tags, configure the following reaction system;
Gradient annealing: 95° C. 5 min
4. Combining cleavage tags with beads • Beads were centrifuged at 15,000 g for 5 min, and the supernatant was removed, then 120 μl of annealed mRNA and tags were added and incubated for 30 min at room temperature, during which time they were gently shaken to ensure adequate binding.
5. Enzyme cleavage using RNase H; • Add 10 μl RNase H and incubate at 37° C. for 3 h. Precipitate the beads with magnet and discard the supernatant. • Add 100 μl washing buffer, mix thoroughly, magnet precipitate for 2 min, and discard the supernatant. Repeat 3 times. • Wash with DI water for 3 times.
6. Hydrolysis with RppH; • Use 10 units RppH in nebuffer 2 to hydrolyze at room temperature for 1 h.
DI water was aspirated, 100 μl of 75% ethanol preheated to 80° C. was added, incubat for 3 min, and magnet precipitat for 3 min. The supernatant was taken, followed by evaporating, and centrifuge for 45 min to a volume of 10 μl. Finally, the sample was resuspended in 50 μl of […] EDTA/1% MeOH and left for LC-MS analysis.
9. the mRNA capping rate of different Cap analogs synthesized was analyzed with LC-MS.

Chain of T7 Enzyme Mix (P00573 whole entry): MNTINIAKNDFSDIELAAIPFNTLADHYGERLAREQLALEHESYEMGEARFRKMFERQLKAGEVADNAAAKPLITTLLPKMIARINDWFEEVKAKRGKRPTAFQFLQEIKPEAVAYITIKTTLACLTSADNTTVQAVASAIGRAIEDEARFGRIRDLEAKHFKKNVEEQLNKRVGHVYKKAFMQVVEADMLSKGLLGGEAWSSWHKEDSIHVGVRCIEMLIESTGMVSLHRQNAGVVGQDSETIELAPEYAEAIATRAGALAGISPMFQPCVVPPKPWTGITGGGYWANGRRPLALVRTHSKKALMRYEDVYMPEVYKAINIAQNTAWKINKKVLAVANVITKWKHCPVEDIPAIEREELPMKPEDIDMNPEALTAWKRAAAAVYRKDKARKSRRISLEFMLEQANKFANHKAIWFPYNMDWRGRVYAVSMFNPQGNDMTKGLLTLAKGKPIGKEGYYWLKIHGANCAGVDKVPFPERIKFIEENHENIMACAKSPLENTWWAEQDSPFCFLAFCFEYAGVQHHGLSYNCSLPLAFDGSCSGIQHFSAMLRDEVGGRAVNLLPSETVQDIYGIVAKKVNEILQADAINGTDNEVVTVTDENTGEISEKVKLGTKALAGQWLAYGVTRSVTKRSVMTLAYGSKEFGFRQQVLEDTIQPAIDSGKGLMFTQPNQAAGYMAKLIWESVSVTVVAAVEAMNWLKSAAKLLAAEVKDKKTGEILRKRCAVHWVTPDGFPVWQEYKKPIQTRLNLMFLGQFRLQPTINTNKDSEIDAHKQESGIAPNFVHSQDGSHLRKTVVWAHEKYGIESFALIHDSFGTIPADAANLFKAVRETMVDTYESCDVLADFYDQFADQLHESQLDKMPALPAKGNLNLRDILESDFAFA

SMILES | Mass of final product obtained from 1 ml mRNA synthesis reaction system (T7 Enzyme Mix) | Intracellular immunogenicity of mRNA when using different Cap structures [1] | mRNA capping rates when using different Cap structures (mRNA)
CO[C@@H]1[C@H](O)[C@@H](COP(=O)(O)O[C@H]2[C@@H](OC)[C@H](n3cnc4c(=O)[nH]c(N)nc43)O[C@@H]2COP(=O)(O)OP(=O)(O)OP(=O)([O-])OC[C@H]2O[C@@H](n3c[n+](C)c4c(=O)[nH]c(N)nc43)[C@H](O)[C@@H]2O)O[C@H]1n1ccc(=O)[nH]c1=O [Cap analog 14, m7G(5′)ppp(5′)(2′OMeG)p(2′OMeU)] | 5.5 mg | 0.35 | 94.82%
CO[C@@H]1[C@H](O)[C@@H](COP(=O)(O)O[C@H]2[C@@H](OC)[C@H](n3ccc(N)nc3=O)O[C@@H]2COP(=O)(O)OP(=O)(O)OP(=O)([O-])OC[C@H]2O[C@@H](n3c[n+](C)c4c(=O)[nH]c(N)nc43)[C@H](O)[C@@H]2OC)O[C@H]1n1ccc(N)nc1=O [Cap analog 27, 3-O-Me-m7G(5′)ppp(5′)(2′OMeC)p(2′OMeC)] | 4.7 mg | 0.09 | 94.88%
CO[C@@H]1[C@H](O)[C@@H](COP(=O)(O)O[C@H]2[C@@H](OC)[C@H](n3ccc(N)nc3=O)O[C@@H]2COP(=O)(O)OP(=O)(O)OP(=O)([O-])OC[C@H]2O[C@@H](n3c[n+](C)c4c(=O)[nH]c(N)nc43)[C@H](O)[C@@H]2O)O[C@H]1n1ccc(=O)[nH]c1=O [Cap analog 15, m7G(5′)ppp(5′)(2′OMeC)p(2′OMeU)] | 4.6 mg | 0.34 | 94.83%
CO[C@@H]1[C@H](O)[C@@H](COP(=O)(O)O[C@H]2[C@@H](OC)[C@H](n3ccc(N)nc3=O)O[C@@H]2COP(=O)(O)OP(=O)(O)OP(=O)([O-])OC[C@H]2O[C@@H](n3c[n+](C)c4c(=O)[nH]c(N)nc43)[C@H](O)[C@@H]2O)O[C@H]1n1ccc(N)nc1=O [Cap analog 11, m7G(5′)ppp(5′)(2′OMeC)p(2′OMeC)] | 4.7 mg | 0.31 | 95.2%
CO[C@@H]1[C@H](OP(=O)(O)OC[C@H]2O[C@@H](n3cnc4c(N)ncnc43)[C@H](OC)[C@@H]2O)[C@@H](COP(=O)(O)OP(=O)(O)OP(=O)([O-])OC[C@H]2O[C@@H](n3c[n+](C)c4c(=O)[nH]c(N)nc43)[C@H](O)[C@@H]2O)O[C@H]1n1ccc(=O)[nH]c1=O [Cap analog 8, m7G(5′)ppp(5′)(2′OMeU)p(2′OMeA)] | 5.3 mg | 0.31 | 94.79%
CO[C@@H]1[C@H](O)[C@@H](COP(=O)(O)O[C@H]2[C@@H](OC)[C@H](n3cnc4c(=O)[nH]c(N)nc43)O[C@@H]2COP(=O)(O)OP(=O)(O)OP(=O)([O-])OC[C@H]2O[C@@H](n3c[n+](C)c4c(=O)[nH]c(N)nc43)[C@H](O)[C@@H]2OC)O[C@H]1n1cnc2c(N)ncnc21 [Cap analog 22, 3-O-Me-m7G(5′)ppp(5′)(2′OMeG)p(2′OMeA)] | 4.6 mg | 0.29 | 94.83%
CO[C@@H]1[C@H](OP(=O)(O)OC[C@H]2O[C@@H](n3cnc4c(=O)[nH]c(N)nc43)[C@H](OC)[C@@H]2O)[C@@H](COP(=O)(O)OP(=O)(O)OP(=O)([O-])OC[C@H]2O[C@@H](n3c[n+](C)c4c(=O)[nH]c(N)nc43)[C@H](O)[C@@H]2O)O[C@H]1n1ccc(N)nc1=O [Cap analog 3, m7G(5′)ppp(5′)(2′OMeC)p(2′OMeG)] | 5.8 mg | 0.28 | 94.82%
CO[C@@H]1[C@H](O)[C@@H](COP(=O)(O)O[C@H]2[C@@H](OC)[C@H](n3cnc4c(=O)[nH]c(N)nc43)O[C@@H]2COP(=O)(O)OP(=O)(O)OP(=O)([O-])OC[C@H]2O[C@@H](n3c[n+](C)c4c(=O)[nH]c(N)nc43)[C@H](O)[C@@H]2OC)O[C@H]1n1ccc(N)nc1=O [Cap analog 26, 3-O-Me-m7G(5′)ppp(5′)(2′OMeG)p(2′OMeC)] | 4.6 mg | 0.49 | 94.97%
CO[C@@H]1[C@H](O)[C@@H](COP(=O)(O)O[C@H]2[C@@H](OC)[C@H](n3cnc4c(N)ncnc43)O[C@@H]2COP(=O)(O)OP(=O)(O)OP(=O)([O-])OC[C@H]2O[C@@H](n3c[n+](C)c4c(=O)[nH]c(N)nc43)[C@H](O)[C@@H]2OC)O[C@H]1n1cnc2c(=O)[nH]c(N)nc21 [Cap analog 17, 3-O-Me-m7G(5′)ppp(5′)(2′OMeA)p(2′OMeG)] | 4.7 mg | 0.44 | 94.91%
CO[C@@H]1[C@H](O)[C@@H](COP(=O)(O)O[C@H]2[C@@H](OC)[C@H](n3cnc4c(N)ncnc43)O[C@@H]2COP(=O)(O)OP(=O)(O)OP(=O)([O-])OC[C@H]2O[C@@H](n3c[n+](C)c4c(=O)[nH]c(N)nc43)[C@H](O)[C@@H]2O)O[C@H]1n1cnc2c(=O)[nH]c(N)nc21 [Cap analog 1, m7G(5′)ppp(5′)(2′OMeA)p(2′OMeG)] | 4.5 mg | 0.40 | 94.91%
CO[C@@H]1[C@H](OP(=O)(O)OC[C@H]2O[C@@H](n3cnc4c(N)ncnc43)[C@H](OC)[C@@H]2O)[C@@H](COP(=O)(O)OP(=O)(O)OP(=O)([O-])OC[C@H]2O[C@@H](n3c[n+](C)c4c(=O)[nH]c(N)nc43)[C@H](O)[C@@H]2O)O[C@H]1n1ccc(N)nc1=O [Cap analog 7, m7G(5′)ppp(5′)(2′OMeC)p(2′OMeA)] | 5.3 mg | 0.24 | 94.76%
CO[C@@H]1[C@H](O)[C@@H](COP(=O)(O)O[C@H]2[C@@H](OC)[C@H](n3cnc4c(N)ncnc43)O[C@@H]2COP(=O)(O)OP(=O)(O)OP(=O)([O-])OC[C@H]2O[C@@H](n3c[n+](C)c4c(=O)[nH]c(N)nc43)[C@H](O)[C@@H]2O)O[C@H]1n1cnc2c(N)ncnc21 [Cap analog 5, m7G(5′)ppp(5′)(2′OMeA)p(2′OMeA)] | 4.4 mg | 0.52 | 94.88%
CO[C@@H]1[C@H](O)[C@@H](COP(=O)(O)O[C@H]2[C@@H](OC)[C@H](n3cnc4c(=O)[nH]c(N)nc43)O[C@@H]2COP(=O)(O)OP(=O)(O)OP(=O)([O-])OC[C@H]2O[C@@H](n3c[n+](C)c4c(=O)[nH]c(N)nc43)[C@H](O)[C@@H]2OC)O[C@H]1n1cnc2c(=O)[nH]c(N)nc21 [Cap analog 18, 3-O-Me-m7G(5′)ppp(5′)(2′OMeG)p(2′OMeG)] | 4.1 mg | 0.31 | 94.98%
